Assays:
pErk [1] = settings: NCI-H2030, 24 hour dose response
KRAS^G12C [2] = molecular target: T1, KRAS^G12C (Homo sapiens, UniProt P01116, G12C); assay: KRAS^G12C degradation by immunoblot in MIA PaCa-2 cells; format: cell-based; design: MRTX849-VHL bifunctional compounds engage and degrade endogenous KRAS^G12C in NCI-H2030 cells; endogenous in cells; host or cells: NCI-H2030, NCI-H358, MIA PaCa-2, SW1573, NCI-H23; settings: for KRAS, two-way ANOVA significance vs DMSO: FIG. 10A
Procedure: NCI-H2030 (CRL-5914), MIA PaCa-2 (CRL-1420), NCI-H23 (CRL-5800), NCI-H358 (CRL-5807), and HCT-116 (CCL-247) cells were obtained from ATCC, expanded immediately, and frozen down. Vials were thawed and used within 20 passages. SW1573 cells were a gift from Arvinas and were handled in the same manner. NCI-H2030, NCI-H23, and NCI-H358 were cultured in RPMI (ATCC30-2001) supplemented with 10% FBS (Biological Industries; cat. no. S1480) and 1% Penicillin-Streptomycin (ThermoFisher; cat. no. 15140122). HCT-116 cells were maintained in high glucose DMEM (ThermoFisher; cat. no. 11965084) supplemented as above. MIA PaCa-2 cells were cultured in high glucose DMEM supplemented with 10% FBS, 2.5% horse serum (ThermoFisher; cat. no. 26050-088; lot 2109875), and 1% Penicillin-Streptomycin. SW1573 cells were maintained in DMEM/F12 Nutrient Mix with GlutaMAX supplement (ThermoFisher; cat. no. 10565018) with 10% FBS and 1% Penicillin-Streptomycin added. DPBS (ThermoFisher; cat. no. 14190250) was used to wash cells and 0.25% Trypsin-EDTA (ThermoFisher; cat. no. […]) was used to detach cells for passaging. […] The VHL ligand was generously provided by Arvinas.
Between 2.5×10^5 and 6.0×10^5 cells were seeded into 6-well plates (Corning; cat. no. 353046). The next day, media was removed and cells were treated with 2.5 μM LC-2 for 1, 2, 4, 8, 12, or 24 hours. […] For 24-hour time course experiments, cells were treated at the indicated times and concurrently lysed in RIPA buffer supplemented as described previously. For longer time course experiments and time courses in which cells were treated with LC-2 or LC-2 Epimer, cells were concurrently treated with either compound, then lysed by scraping in RIPA buffer at the indicated time points.
Cell lysates were clarified at 21000×g for 15 mins at 4° C. Protein levels were quantified using a 50:1 mixture of bicinchoninic acid solution (Millipore Sigma; cat. no. B9643) and 4% (w/v) copper(II) sulfate solution (Millipore Sigma; cat. no. C2284) incubated at 37° C. for 30 mins. Absorbance values at 560 nm were read on an EnVision 2101 Multilabel Reader (PerkinElmer). Proteins were separated using 26 well Criterion TGX precast 4-15% (cat. no. 5671085) or 8-16% (cat. no. 5671105) gradient midi gels. After separation, proteins were transferred to nitrocellulose or PVDF membranes at 76 V for 2 hours at 4° C. Blots were then blocked in 5% milk in tris-buffered saline with Tween-20 (TBST; 20 mM Tris, 150 mM NaCl, 0.02% Tween-20). After blocking, blots were incubated in primary antibody overnight (12-18 hours) at 4° C. or for 2 hours at room temperature with mild agitation at the manufacturer's indicated dilution in either 5% milk or 5% BSA in TBST. Blots were then washed thrice with TBST for 5 mins at room temperature. After washing, blots were incubated with 1:5,000-1:10,000 of donkey anti-rabbit (GE Life Sciences; NA934) or sheep anti-mouse (GE Life Sciences; NA931) secondary antibody diluted in 5% milk for 1 hour at room temperature with mild agitation. Blots were again washed thrice with TBST for 5 mins. Chemiluminescent signal was generated using Amersham ECL Prime Western Blotting Detection Reagant (GE Life Sciences; cat. no. RPN2232) or SuperSignal West Femto Maximum Sensitivity Substrate (ThermoFisher; cat. no. 34095). Images were obtained using a Bio-Rad ChemiDoc Imager. Fluorescent α-tubulin images were collected with the Bio-Rad ChemiDoc Imager using an Alexa488 filter. The primary antibodies used in this work include: KRAS (LSBio; clone 2C1; cat. no. LS-C175665), p-p42/44 MAPK (phospho T202/Y204) (pErk; Cell Signaling Technologies (CST); cat. no. 4370S or 9106S), p42/44 MAPK (Erk1/2; CST; cat. no. 4695S), alpha-tubulin (CST; 2144S), and alpha-tubulin w/AlexaFluor488 (Millipore; cat. no. 16-232).
Band intensities were quantified using BioRad's Image Lab Software.

pErk [3] = assay: Erk signaling (pErk) during a 24 hour treatment in SW1573 cells; format: cell-based; settings: 24 hour treatment time course (FIG. 11)
KRAS^G12C [4] = molecular target: T1, KRAS^G12C; assay: KRAS^G12C degradation in a panel of 5 KRAS^G12C cancer cell lines (immunoblot); format: cell-based; design: MRTX849-VHL bifunctional compounds engage and degrade endogenous KRAS^G12C in NCI-H2030 cells; endogenous in cells; host or cells: NCI-H2030, NCI-H358, MIA PaCa-2, SW1573, NCI-H23; settings: read-out: DMax values across cell lines
Procedure: NCI-H2030 (CRL-5914), MIA PaCa-2 (CRL-1420), NCI-H23 (CRL-5800), NCI-H358 (CRL-5807), and HCT-116 (CCL-247) cells were obtained from ATCC, expanded immediately, and frozen down. Vials were thawed and used within 20 passages. SW1573 cells were a gift from Arvinas and were handled in the same manner. NCI-H2030, NCI-H23, and NCI-H358 were cultured in RPMI (ATCC30-2001) supplemented with 10% FBS (Biological Industries; cat. no. S1480) and 1% Penicillin-Streptomycin (ThermoFisher; cat. no. 15140122). HCT-116 cells were maintained in high glucose DMEM (ThermoFisher; cat. no. 11965084) supplemented as above. […]
Cell lysates were clarified at 21000×g for 15 mins at 4° C. Protein levels were quantified using a 50:1 mixture of bicinchoninic acid solution (Millipore Sigma; cat. no. B9643) and 4% (w/v) copper(II) sulfate solution (Millipore Sigma; cat. no. C2284) incubated at 37° C. for 30 mins. Absorbance values at 560 nm were read on an EnVision 2101 Multilabel Reader (PerkinElmer). […]
Band intensities were quantified using BioRad's Image Lab Software. Total KRAS levels were examined by quantifying levels of both conjugated KRAS^G12C and unbound KRAS (wt or mutant) using an analysis box that spanned the two bands. This same sized box was used to quantify unbound KRAS in DMSO treated samples to account for background, except for LC-2 Epimer in FIGS. 6A and 6B. […]

## C=C(F)C(=O)N1CCN(c2nc(OC[C@@H]3CCCN3CCCOCCC(=O)N[C@H](C(=O)N3C[C@H](O)C[C@H]3C(=O)NCc3ccc(-c4scnc4C)cc3)C(C)(C)C)nc3c2CCN(c2cccc4cccc(Cl)c24)C3)C[C@@H]1CC#N [LC-2, (2S,4R)-1-((S)-2-(3-(3-((S)-2-(((7-(8-chloronaphthalen-1-yl)-4-((S)-3-(cyanomethyl)-4-(2-fluoroacryloyl)piperazin-1-yl)-5,6,7,8-tetrahydropyrido[3,4-d]pyrimidin-2-yl)oxy)methyl)pyrrolidin-1-yl)propoxy)propanamido)-3,3-dimethylbutanoyl)-4-hydroxy-N-(4-(4-methylthiazol-5-yl)benzyl)pyrrolidine-2-carboxamide]
pErk [1]
  pErk signaling: dose-dependent decrease in signaling
  total Erk levels: elevated in a dose-dependent manner
KRAS^G12C [2]; MIA PaCa2, homozygous KRAS^G12C
  DC50: 320 ± 80 nM
KRAS^G12C [2]; MIA PaCa-2
  Dmax: > 75%
KRAS^G12C [2]; MIA PaCa-2, 2.5 μM
  duration of KRAS degradation: sustained up to 72 hours
KRAS^G12C [2]; MIA PaCa-2, 2.5 μM, 6, 24, 48, 72 hours
  time to maximal KRAS degradation: ≤ 24 h
KRAS^G12C [2]; MIA PaCa-2, 2.5 μM, 6 hours
  KRAS, two-way ANOVA significance vs DMSO: ** (** p < 0.01)
KRAS^G12C [2]; MIA PaCa-2, 2.5 μM, 24 hours
  KRAS, two-way ANOVA significance vs DMSO: ** (** p < 0.01)
pErk [3]
  pErk (Erk signaling): pErk is decreased throughout the time course
KRAS^G12C [4]
  Dmax: 75 to 90%

From US20220370416A1, “COMPOUNDS AND METHODS FOR TARGETED DEGRADATION OF KRAS” (Arvinas Operations, Inc., priority 2020, published 2022)
